Experimental data from paper PMC9268013, “Design, Synthesis, and Biological Evaluation of N14-Amino Acid-Substituted Tetrandrine Derivatives as Potential Antitumor Agents against Human Colorectal Cancer” (Molecules, 2022).

Key:
Format in all cases: cell-based
[1] = test system: human breast cancer cells (MCF-7); test: MTT antiproliferative assay, MCF-7; settings: Homo sapiens, MCF7, 72 h
Protocol: (§1) Human lung cancer cell (A549,), human umbilical vein endothelial cells (HUVECs,), human colon cancer cell lines (HCT-15), human breast cancer cells (MCF-7), human liver cancer cells (HepG2), human pancreatic cancer cells (BxPC-3), and human hepatic cell line (L-02) were obtained from the Sichuan University. A549, HUVECs, and L-02 were cultured in DMEM medium (high glucose, HyClone, GE Healthcare, Sydney, Australia). Human colon cancer cell lines HCT-15, human pancreatic cancer cells […] BxPC-3 were cultured in RPMI-1640. Human breast cancer cells MCF-7 and human liver cancer cells HepG2 were cultured in MEM medium. All the mediums, including 10% fetal bovine serum (FBS, HyClone, GE Healthcare, Sydney, Australia) and 1% ampicillin/streptomycin, were used to culture the above cells at 37 °C in a humidified atmosphere (5% CO2 and 95% air).
(§2) The antiproliferative activity of the title compounds was determined using the MTT (3-(4,5-dimethylthiazol-2-yl)-2,5-diphenyltetrazolium bromide, Sigma-Aldrich, Saint Louis, MO, USA) assay on different cells. Cells lines were seeded into 96-well plates at a density of 2000 to 6000 cells/well. DMSO was used to dissolve the test compounds, and TET was used as a positive control. After 24 h, the test compounds were added at different concentrations (0.625, 1.25, 2.5, 5, 10, and 20 μM) and incubated at 37 °C for 72 h. MTT was added to each well at a final concentration of 0.5 mg/mL and incubated at 37 °C for 4 h. Then, 150 μL of DMSO was added to each well to dissolve the formazan crystals. The absorbance was measured at 570 nm by a microplate reader (ELX800UV, Bio-Tek, Windoski, VT, USA). All measurements were repeated at least three times under the same conditions. Graphpad Prism 8.0 was used to calculate the IC50 values.

[2] = test system: human umbilical vein endothelial cells (HUVEC); test: MTT antiproliferative assay, HUVEC; settings: 72 h
Protocol: as §1, §2

[3] = test system: human normal hepatocyte cells (L-02); test: MTT toxicity assay, normal hepatocytes L-02; settings: 72 h, normal hepatocyte L-02 (toxicity), read-out: Antiproliferative Activity (IC50/μM) L-02
Protocol: as §1, §2

[4] = test system: human lung cancer cells (A549); test: MTT antiproliferative assay, A549; settings: Homo sapiens, A549, 72 h
Protocol: as §1, §2

[5] = test system: human colon cancer cells (HCT-15); test: MTT antiproliferative assay, HCT-15; settings: Homo sapiens; MTT, 72 h, HCT-15
Protocol: as §1, §2

[6] = test system: human pancreatic cancer cells (BxPC-3); test: MTT antiproliferative assay, BxPC-3; settings: Homo sapiens, BXPC-3, 72 h
Protocol: as §1, §2

[7] = test system: human liver cancer cells (HepG2); test: MTT antiproliferative assay, HepG2; settings: Homo sapiens, HepG2, 72 h
Protocol: as §1, §2

| Structure (SMILES) | IC50 [1] | IC50 [4] | IC50 [5] | IC50 [6] | IC50 [7] | IC50 [2] | IC50 [3] |
| --- | --- | --- | --- | --- | --- | --- | --- |
| COc1cc(NC(=O)[C@@H](N)C(C)C)c2cc1Oc1ccc(cc1)C[C@H]1c3cc(c(OC)cc3CCN1C)Oc1c(OC)c(OC)cc3c1[C@H](C2)N(C)CC3 [Compound 14, 14-N-(L-valine)-tetrandrine] | 7.96 ± 1.08 µM | 6.11 ± 0.91 µM | 4.02 ± 0.15 µM | 4.95 ± 0.29 µM | 3.26 ± 0.05 µM | 2.48 ± 0.15 µM | 14.5 ± 0.37 µM |
| COc1cc(NC(=O)[C@H](C)N)c2cc1Oc1ccc(cc1)C[C@H]1c3cc(c(OC)cc3CCN1C)Oc1c(OC)c(OC)cc3c1[C@H](C2)N(C)CC3 [Compound 13] | 11.1 ± 0.26 µM | 8.12 ± 0.43 µM | 4.69 ± 0.47 µM | 6.95 ± 0.57 µM | 3.27 ± 1 µM | 2.2 ± 0.37 µM | > 20 µM |
| COc1cc(NC(=O)[C@H](C)NC(=O)OC(C)(C)C)c2cc1Oc1ccc(cc1)C[C@H]1c3cc(c(OC)cc3CCN1C)Oc1c(OC)c(OC)cc3c1[C@H](C2)N(C)CC3 [Compound 4] | 5.78 ± 0.35 µM | 7.44 ± 1.11 µM | 3.28 ± 0.32 µM | 4.74 ± 0.37 µM | 3.9 ± 0.62 µM | 4.01 ± 0.41 µM | > 20 µM |
| COc1cc(NC(=O)CN)c2cc1Oc1ccc(cc1)C[C@H]1c3cc(c(OC)cc3CCN1C)Oc1c(OC)c(OC)cc3c1[C@H](C2)N(C)CC3 [Compound 12, 14-N-(L-glycine)-tetrandrine] | 6.91 ± 0.66 µM | 4.94 ± 0.45 µM | 3.54 ± 0.36 µM | 3.98 ± 0.16 µM | 3.19 ± 0.76 µM | 3.19 ± 0.61 µM | > 20 µM |
| COc1cc(NC(=O)[C@@H](N)CO)c2cc1Oc1ccc(cc1)C[C@H]1c3cc(c(OC)cc3CCN1C)Oc1c(OC)c(OC)cc3c1[C@H](C2)N(C)CC3 [Compound 17, 14-N-(L-serine)-tetrandrine] | 7.53 ± 0.11 µM | 7.44 ± 1.02 µM | 3.94 ± 0.37 µM | 3.67 ± 0.19 µM | 3.13 ± 0.7 µM | 2.88 ± 0.26 µM | > 20 µM |
| COc1cc(NC(=O)[C@@H](N)[C@@H](C)O)c2cc1Oc1ccc(cc1)C[C@H]1c3cc(c(OC)cc3CCN1C)Oc1c(OC)c(OC)cc3c1[C@H](C2)N(C)CC3 [Compound 18, 14-N-(L-threonine)-tetrandrine] | 10.2 ± 0.4 µM | 6.81 ± 1.1 µM | 5.28 ± 0.37 µM | 5.6 ± 0.38 µM | 3.57 ± 0.67 µM | 3.25 ± 0.69 µM | > 20 µM |

Molecules with a lower IC50 [1], results first:

| IC50 [1] | IC50 [4] | IC50 [5] | IC50 [6] | IC50 [7] | Structure (SMILES) | IC50 [2] | IC50 [3] |
| --- | --- | --- | --- | --- | --- | --- | --- |
| 5.03 ± 0.04 µM | 6.26 ± 0.41 µM | 3.56 ± 0.27 µM | 3.58 ± 0.15 µM | 2.81 ± 0.35 µM | COc1cc(NC(=O)[C@H](Cc2ccc(O)cc2)NC(=O)OC(C)(C)C)c2cc1Oc1ccc(cc1)C[C@H]1c3cc(c(OC)cc3CCN1C)Oc1c(OC)c(OC)cc3c1[C@H](C2)N(C)CC3 [Compound 11, 14-N-(Boc-L-tyrosine)-tetrandrine] | 2.16 ± 0.32 µM | 11.8 ± 0.61 µM |
| 4.99 ± 0.66 µM | 5.54 ± 0.16 µM | 3.89 ± 0.47 µM | 6.39 ± 0.2 µM | 3.11 ± 0.68 µM | COc1cc(NC(=O)[C@H](CC(C)C)NC(=O)OC(C)(C)C)c2cc1Oc1ccc(cc1)C[C@H]1c3cc(c(OC)cc3CCN1C)Oc1c(OC)c(OC)cc3c1[C@H](C2)N(C)CC3 [Compound 6] | 2.09 ± 0.19 µM | 13.58 ± 0.13 µM |
| 3.31 ± 0.01 µM | 2.67 ± 0.14 µM | 3.39 ± 0.07 µM | 1.75 ± 0.13 µM | 1.71 ± 0.46 µM | COc1cc(NC(=O)[C@H](N)Cc2ccccc2)c2cc1Oc1ccc(cc1)C[C@H]1c3cc(c(OC)cc3CCN1C)Oc1c(OC)c(OC)cc3c1[C@H](C2)N(C)CC3 [Compound 19] | 1.92 ± 0.17 µM | 9.02 ± 0.26 µM |
